From PubChem BioAssay (NCI)
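All cell lines were grown in 96-well plates and treated with compound for 48 hours. Abbreviation: GI50, concentration required for 50% inhibition of growth. Definition used: TGI = concentration required for complete inhibition of growth.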

Experiments:
Experiment in all cases: inhibition of tumour cell growth, NCI panel, 48 h
NCI-H23 lung = tested on: NCI-H23 lung
NCI/ADR-RES ovarian = tested on: NCI/ADR-RES ovarian
MDA-MB-231 breast = tested on: MDA-MB-231 breast
T-47D breast = tested on: T-47D breast
HOP-62 NSCLC = tested on: HOP-62 NSCLC
CCRF-CEM leukemia = tested on: CCRF-CEM leukemia
MALME-3M melanoma = tested on: MALME-3M melanoma
DU-145 prostate = tested on: DU-145 prostate
HCC-2998 colon = tested on: HCC-2998 colon
TK-10 renal = tested on: TK-10 renal
SF-295 CNS = tested on: SF-295 CNS
SK-MEL-5 melanoma = tested on: SK-MEL-5 melanoma
SNB-75 CNS = tested on: SNB-75 CNS
SN12C renal = tested on: SN12C renal
NCI-H460 lung = tested on: NCI-H460 lung
IGROV1 ovarian = tested on: IGROV1 ovarian
KM12 colon = tested on: KM12 colon
COLO 205 colon = tested on: COLO 205 colon
UO-31 renal = tested on: UO-31 renal
HL-60(TB) leukemia = tested on: HL-60(TB) leukemia
786-0 renal = tested on: 786-0 renal
NCI-H522 lung = tested on: NCI-H522 lung
SNB-19 CNS = tested on: SNB-19 CNS
MDA-MB-435 = tested on: MDA-MB-435
UACC-62 melanoma = tested on: UACC-62 melanoma
EKVX NSCLC = tested on: EKVX NSCLC
NCI-H226 lung = tested on: NCI-H226 lung
HCT-15 colon = tested on: HCT-15 colon
HT29 colon = tested on: HT29 colon
OVCAR-4 ovarian = tested on: OVCAR-4 ovarian
A498 renal = tested on: A498 renal
HCT-116 colon = tested on: HCT-116 colon
K-562 leukemia = tested on: K-562 leukemia
CAKI-1 renal = tested on: CAKI-1 renal
SR leukemia = tested on: SR leukemia
SK-MEL-28 melanoma = tested on: SK-MEL-28 melanoma
SF-268 CNS = tested on: SF-268 CNS
LOX IMVI melanoma = tested on: LOX IMVI melanoma
MOLT-4 leukemia = tested on: MOLT-4 leukemia
HS 578T breast = tested on: HS 578T breast
SF-539 CNS = tested on: SF-539 CNS
PC-3 prostate = tested on: PC-3 prostate
A549 NSCLC = tested on: A549 NSCLC
RPMI-8226 leukemia = tested on: RPMI-8226 leukemia
UACC-257 melanoma = tested on: UACC-257 melanoma
MCF7 breast = tested on: MCF7 breast
RXF 393 renal = tested on: RXF 393 renal
OVCAR-3 ovarian = tested on: OVCAR-3 ovarian
HOP-92 NSCLC = tested on: HOP-92 NSCLC
SK-MEL-2 melanoma = tested on: SK-MEL-2 melanoma
BT-549 breast = tested on: BT-549 breast
ACHN renal = tested on: ACHN renal
OVCAR-5 ovarian = tested on: OVCAR-5 ovarian
SW-620 colon = tested on: SW-620 colon
M14 melanoma = tested on: M14 melanoma
SK-OV-3 ovarian = tested on: SK-OV-3 ovarian
OVCAR-8 ovarian = tested on: OVCAR-8 ovarian
U251 CNS = tested on: U251 CNS

Question: Which GI50 (NCI-H23 lung) does the source give for `O=C(Nc1ccc(N2CCNCC2)cc1)c1[nH]ncc1Nc1cc(Oc2ccccc2)ncn1` here?
Answer: 2.12 µM

Question: And the TGI (NCI-H23 lung)?
Answer: 7.85 µM

Question: What about the GI50 (NCI/ADR-RES ovarian) of the same compound?
Answer: 12 µM

Question: And the TGI (NCI/ADR-RES ovarian)?
Answer: 39.2 µM

Question: What about the GI50 (MDA-MB-231 breast) of the same compound?
Answer: 2.03 µM

Question: What about the TGI (MDA-MB-231 breast) of the same compound?
Answer: 5.72 µM

Question: And the GI50 (T-47D breast)?
Answer: 2.46 µM

Question: And the TGI (T-47D breast)?
Answer: 8.09 µM

Question: And the GI50 (HOP-62 NSCLC)?
Answer: 2.24 µM

Question: What about the TGI (HOP-62 NSCLC) of the same compound?
Answer: 6.05 µM

Question: What about the GI50 (CCRF-CEM leukemia) of the same compound?
Answer: 1.83 µM

Question: And the TGI (CCRF-CEM leukemia)?
Answer: 4.73 µM

Question: And the GI50 (MALME-3M melanoma)?
Answer: 1.98 µM

Question: And the TGI (MALME-3M melanoma)?
Answer: 4.93 µM

Question: And the GI50 (DU-145 prostate)?
Answer: 3.03 µM

Question: What about the TGI (DU-145 prostate) of the same compound?
Answer: 11.2 µM

Question: And the GI50 (HCC-2998 colon)?
Answer: 1.95 µM

Question: What about the TGI (HCC-2998 colon) of the same compound?
Answer: 4.2 µM

Question: And the GI50 (TK-10 renal)?
Answer: 2.07 µM

Question: And the TGI (TK-10 renal)?
Answer: 4.67 µM

Question: What about the GI50 (SF-295 CNS) of the same compound?
Answer: 1.7 µM

Question: What about the TGI (SF-295 CNS) of the same compound?
Answer: 3.27 µM

Question: And the GI50 (SK-MEL-5 melanoma)?
Answer: 1.43 µM

Question: And the TGI (SK-MEL-5 melanoma)?
Answer: 3 µM

Question: What about the GI50 (SNB-75 CNS) of the same compound?
Answer: 2.45 µM

Question: What about the TGI (SNB-75 CNS) of the same compound?
Answer: 5.6 µM

Question: What about the GI50 (SN12C renal) of the same compound?
Answer: 3.19 µM

Question: What about the TGI (SN12C renal) of the same compound?
Answer: 9.31 µM

Question: And the GI50 (NCI-H460 lung)?
Answer: 0.635 µM

Question: And the TGI (NCI-H460 lung)?
Answer: 2.3 µM

Question: What about the GI50 (IGROV1 ovarian) of the same compound?
Answer: 3 µM

Question: What about the TGI (IGROV1 ovarian) of the same compound?
Answer: 11.3 µM

Question: And the GI50 (KM12 colon)?
Answer: 0.216 µM

Question: What about the TGI (KM12 colon) of the same compound?
Answer: 0.521 µM

Question: And the GI50 (COLO 205 colon)?
Answer: 1.19 µM

Question: What about the TGI (COLO 205 colon) of the same compound?
Answer: 2.78 µM

Question: And the GI50 (UO-31 renal)?
Answer: 1.7 µM

Question: And the TGI (UO-31 renal)?
Answer: 3.36 µM

Question: And the GI50 (HL-60(TB) leukemia)?
Answer: 1.91 µM

Question: What about the TGI (HL-60(TB) leukemia) of the same compound?
Answer: 4.54 µM

Question: And the GI50 (786-0 renal)?
Answer: 1.84 µM

Question: What about the TGI (786-0 renal) of the same compound?
Answer: 3.33 µM

Question: What about the GI50 (NCI-H522 lung) of the same compound?
Answer: 2.14 µM

Question: And the TGI (NCI-H522 lung)?
Answer: 8.19 µM

Question: What about the GI50 (SNB-19 CNS) of the same compound?
Answer: 3.19 µM

Question: And the TGI (SNB-19 CNS)?
Answer: 12.5 µM

Question: What about the GI50 (MDA-MB-435) of the same compound?
Answer: 1.68 µM

Question: And the TGI (MDA-MB-435)?
Answer: 4.66 µM

Question: What about the GI50 (UACC-62 melanoma) of the same compound?
Answer: 2.15 µM

Question: What about the TGI (UACC-62 melanoma) of the same compound?
Answer: 4.96 µM

Question: And the GI50 (EKVX NSCLC)?
Answer: 1.99 µM

Question: And the TGI (EKVX NSCLC)?
Answer: 6.79 µM

Question: And the GI50 (NCI-H226 lung)?
Answer: 1.91 µM

Question: What about the TGI (NCI-H226 lung) of the same compound?
Answer: 10.5 µM

Question: And the GI50 (HCT-15 colon)?
Answer: 2.18 µM

Question: What about the TGI (HCT-15 colon) of the same compound?
Answer: 5.64 µM

Question: And the GI50 (HT29 colon)?
Answer: 1.78 µM

Question: What about the TGI (HT29 colon) of the same compound?
Answer: 4.53 µM

Question: And the GI50 (OVCAR-4 ovarian)?
Answer: 2.59 µM

Question: And the GI50 (A498 renal)?
Answer: 1.96 µM

Question: What about the TGI (A498 renal) of the same compound?
Answer: 4.82 µM

Question: And the GI50 (HCT-116 colon)?
Answer: 1.42 µM

Question: What about the TGI (HCT-116 colon) of the same compound?
Answer: 2.99 µM

Question: What about the GI50 (K-562 leukemia) of the same compound?
Answer: 2.22 µM

Question: What about the TGI (K-562 leukemia) of the same compound?
Answer: 10.9 µM

Question: What about the GI50 (CAKI-1 renal) of the same compound?
Answer: 1.21 µM

Question: What about the TGI (CAKI-1 renal) of the same compound?
Answer: 3.39 µM

Question: And the GI50 (SR leukemia)?
Answer: 0.299 µM

Question: What about the TGI (SR leukemia) of the same compound?
Answer: 1.84 µM

Question: And the GI50 (SK-MEL-28 melanoma)?
Answer: 2.26 µM

Question: And the TGI (SK-MEL-28 melanoma)?
Answer: 5.75 µM

Question: And the GI50 (SF-268 CNS)?
Answer: 3.57 µM

Question: And the TGI (SF-268 CNS)?
Answer: 14.4 µM

Question: What about the GI50 (LOX IMVI melanoma) of the same compound?
Answer: 0.22 µM

Question: And the TGI (LOX IMVI melanoma)?
Answer: 0.54 µM

Question: What about the GI50 (MOLT-4 leukemia) of the same compound?
Answer: 2.05 µM

Question: And the TGI (MOLT-4 leukemia)?
Answer: 5.28 µM

Question: And the GI50 (HS 578T breast)?
Answer: 3.06 µM

Question: And the TGI (HS 578T breast)?
Answer: 14.8 µM

Question: And the GI50 (SF-539 CNS)?
Answer: 1.69 µM

Question: What about the TGI (SF-539 CNS) of the same compound?
Answer: 3.35 µM

Question: And the GI50 (PC-3 prostate)?
Answer: 1.47 µM

Question: And the TGI (PC-3 prostate)?
Answer: 3.2 µM

Question: And the GI50 (A549 NSCLC)?
Answer: 1.07 µM

Question: What about the TGI (A549 NSCLC) of the same compound?
Answer: 2.95 µM

Question: What about the GI50 (RPMI-8226 leukemia) of the same compound?
Answer: 1.5 µM

Question: And the TGI (RPMI-8226 leukemia)?
Answer: 3.88 µM

Question: And the GI50 (UACC-257 melanoma)?
Answer: 2.86 µM

Question: And the TGI (UACC-257 melanoma)?
Answer: 8.69 µM

Question: What about the GI50 (MCF7 breast) of the same compound?
Answer: 1.28 µM

Question: What about the TGI (MCF7 breast) of the same compound?
Answer: 4.07 µM

Question: What about the GI50 (RXF 393 renal) of the same compound?
Answer: 1.75 µM

Question: What about the TGI (RXF 393 renal) of the same compound?
Answer: 3.33 µM

Question: What about the GI50 (OVCAR-3 ovarian) of the same compound?
Answer: 2.18 µM

Question: And the TGI (OVCAR-3 ovarian)?
Answer: 6.26 µM

Question: And the GI50 (HOP-92 NSCLC)?
Answer: 2.35 µM

Question: What about the TGI (HOP-92 NSCLC) of the same compound?
Answer: 5.32 µM

Question: And the GI50 (SK-MEL-2 melanoma)?
Answer: 3.82 µM

Question: And the TGI (SK-MEL-2 melanoma)?
Answer: 15.3 µM

Question: And the GI50 (BT-549 breast)?
Answer: 1.84 µM

Question: What about the TGI (BT-549 breast) of the same compound?
Answer: 3.58 µM

Question: And the GI50 (ACHN renal)?
Answer: 0.213 µM

Question: What about the TGI (ACHN renal) of the same compound?
Answer: 0.479 µM

Question: And the GI50 (OVCAR-5 ovarian)?
Answer: 1.78 µM

Question: What about the TGI (OVCAR-5 ovarian) of the same compound?
Answer: 4.24 µM

Question: And the GI50 (SW-620 colon)?
Answer: 0.514 µM

Question: What about the TGI (SW-620 colon) of the same compound?
Answer: 1.94 µM

Question: What about the GI50 (M14 melanoma) of the same compound?
Answer: 1.55 µM

Question: What about the TGI (M14 melanoma) of the same compound?
Answer: 3.19 µM

Question: What about the GI50 (SK-OV-3 ovarian) of the same compound?
Answer: 1.99 µM

Question: What about the TGI (SK-OV-3 ovarian) of the same compound?
Answer: 4.84 µM

Question: And the GI50 (OVCAR-8 ovarian)?
Answer: 2.91 µM

Question: And the TGI (OVCAR-8 ovarian)?
Answer: 12.2 µM

Question: And the GI50 (U251 CNS)?
Answer: 2.12 µM

Question: What about the TGI (U251 CNS) of the same compound?
Answer: 10.5 µM
